Laboratory results as given in US6632797B2, “Method of treating angiogenesis” (priority 1996, dated 2003).

Tests used:
[1] = tested on: carrageenan-induced inflammation; assay: Carrageenan-induced paw inflammation in mice (plethysmometer); format: in vivo; details: intravenous injection before carrageenan (64 mg/kg stated for PP35-405); after 3.5 hrs
Experimental: Growth factors are implicated to participate in inflammatory conditions. Carrageenan (0.1 ml, 1%) was injected intraplantarly in one hind paw of two groups of mice, five animals in each group.
An intravenous injection of 64 mg/kg of 1,2-O-ethylene-β-D-fructopyranoside-2,3,4-trisphosphate (PP35-405) was administered immediately before the injection of carrageenan.
Injection of carrageenan induces inflammation which is measured by comparing the increase in paw volume using a plethysmometer.
In a procedure similar to the one described in Example 8, an intravenous injection of 1,5-dideoxy-1,5-imino-N-(2-phenylethyl)arabinitol-2,3,4-trisphosphate (PP35-508) was administered.
In a procedure similar to the one described in Example 8, an intravenous injection of myo-inositol-1,2,6-tris(carboxymethyl phosphonate) (PP40-402) was administered. 3.5 hrs after the injection of carrageenan the inflammation was retarded with 32% in the group recieving PP40-402. Thus the administration of PP40-402 markedly reduces the inflammatory condition.

[2] = Binding constants to the polyamine spermine; format: physicochemical; details: 1:1:5 complex; 0.1 M N-tetramethylbromide at 25° C.
Experimental: The interaction between a polyamine, spermine and different triphosphorylated compounds were investigated in order to determin the binding constants. Spermine is a basic polyamine comprising domains of similar basicity to basic domains in growth factors. Spermine and the different phosphorylated compounds forms different complexes and the 1:1:5 complex was used as the complex for determination of binding constants.
The following binding constants, log Ks was determined in 0.1 M N-tetramethylbromide at 25° C.: […]

[3] = tested on: HIV (viral isolates from HIV-infected patients) in peripheral blood mononuclear cells (PBMC); assay: HIV infection of PBMC, HIV-antigen production by ELISA; format: cell-based; details: normalized HIV-antigen production at day 7, control 100
Experimental: Growth factor activity is considered to be involved in the process of viral infections. Viral isolates from HIV-infected patients were used in order to induce an infection by adding peripheral blood mononuclear cells (PBMC) to a medium containing different concentrations of the sodium salt of D-3,4,5-tri-O-hexanoyl-myo-inositol-1,2,6-trisphosphate (PP10-202). 25 CCID50 (50% cell culture infections dose) of PBMC from HIV-infected patients were incubated with four different concentrations of PP10-202; 0.0625 mg/ml, 0.125 mg/ml, 0.250 mg/ml and 0.500 mg/ml. Another preparation, without any PP10-202 served as a control. The growth medium consisted of 10% fetal calf serum, […] glutamine, 100 IU/ml penicillin, 100 IU/ml streptomycin and 20 μg/ml gentamicin. The concentration of cells were 2×10^5 per ml. All preparations were incubated for 1 hour at 37° C.
PBMCs from healthy donors were then added to the preparation. Before addition, these cells were stimulated for three days with phytohemagglutinin (PHA). 0.5×10^6 PHA-stimulated PBMCs were added to each preparation, followed by incubation for 3 hours at 37° C. After extensive washing the cells were resuspended in growth medium supplemented with 10 IU/ml of interleukin-2 and seeded in quadruplicates of 100.000 cells in a 96-well microtite plate before further cultivation for 7 days. The HIV-antigen production was assayed at the seventh day using an ELISA-technique.

[4] = tested on: acetic acid-induced writhes; assay: Acetic acid writhing test (analgetic effect); format: in vivo, mice; details: 64 mg/kg intravenous, sodium salt; 10-minute observation
Experimental: Two groups of mice, 10 animals per group, were used in order to investigate the analgetic effect of methyl α-D-rhamnopyranoside-2,3,4-trisphosphate (PP 35-406). The control group was given an intravenous dose of saline while the other group was given a dose of 64 mg/kg of the sodium salt of PP 35-406. Three minutes after intravenous dosing, each […] received an intraperitoneal injection of 1 ml of a 1% (w/w) solution of acetic acid. Directly after that procedure each animal was placed into individual observation chambers and the numbers of writhes elicited during the subsequent 10-minute period were recorded. After the observation period the animals were killed by cervical dislocation. The number of writhes during the observation period is an expression of the pain experienced by the animal. Percent protection was calculated as follows: […]((number of writhes in control group—number of writhes in treated animals)/(number of writhes in control group).

[5] = tested on: phosphatidyl inositol 3′ kinase (PI 3′-kinase); assay: Interstitial fluid pressure (PIF) in rat hind paw, wortmannin-induced decrease; format: in vivo, Wistar Möller rats; design: PIF (interstitial fluid pressure): dose or concentration left out as unconfirmed; details: wortmannin in DMSO/saline, 5 μl subdermally; after 30 minutes; vehicle ca −0.7 mm Hg
From the text: The enzyme phosphatidyl inositol 3′ kinase (PI 3′-kinase) is implicated in a number of growth factor induced responses such as mitogenesis, chemotaxis, membrane ruffling and the balance between osteoclasts and osteoblasts. Furthermore it is known that inactivation of PI 3′ kinase leads to increased oedema formation expressed as a decrease of interstitial fluid pressure (PIF) in animal models.
An inhibitor of PI 3′ kinase such as wortmannin renders a decrease of PIF as a consequence of inactivation of PI 3′ kinase.
The measurements were performed on female Wistar Möller rats (200-250 g), anesthetized with pentobarbital (50 mg/kg i.p.).
PIF was measured on the dorsal side of the hind paw with sharpened glass capillarier (tip diameter 2-7 μm) filled with 0.5 M NaCl coloured with Evans Blue and connected to a serve-controlled counter pressure system. The punctures were performed through intact skin using a stereomicroscope. The pipette-tip was located 0.3-0.5 mm below the skin. Pressure measurements were made 2.5-3.0 mm from the center of injection. The normal transcapillary pressure gradient is about 0.5 mm Hg.
Three sets of experiments were performed with six animals in each set.
In the first set of experiment the vehicle for wortmannin, DMSO diluted in saline, 5 μl, was injected subdermally using a chromatography syringe. […]

| log Ks [2] | Molecule | inflammation retarded (increase in paw volume) [1] [%] | also measured |
| --- | --- | --- | --- |
|  | 1,2-O-ethylene-β-D-fructopyranoside-2,3,4-trisphosphate [PP35-405] | 51 |  |
| 4.20 | CCCCCC(=O)O[C@@H]1[C@@H](OC(=O)CCCCC)[C@@H](OP(=O)(O)O)[C@@H](OP(=O)(O)O)[C@H](OP(=O)(O)O)[C@H]1OC(=O)CCCCC [PP10-202, D-3,4,5-tri-O-hexanoyl-myo-inositol-1,2,6-trisphosphate] |  | HIV-infection ([3]; 0.0625 mg/ml): 75%; HIV-infection ([3]; 0.125 mg/ml): 41%; HIV-infection ([3]; 0.250 mg/ml): 33%; HIV-infection ([3]; 0.500 mg/ml): 20% |
| 4.71 | O=C(Nc1ccccc1)O[C@@H]1[C@@H](OC(=O)Nc2ccccc2)[C@@H](OP(=O)(O)O)[C@@H](OP(=O)(O)O)[C@H](OP(=O)(O)O)[C@H]1OC(=O)Nc1ccccc1 [PP11-201, D-3,4,5-tri-O-phenylcarbamoyl-myo-inositol-1,2,6-trisphosphate] |  |  |
|  | O=P(O)(O)OC1CN(CCc2ccccc2)CC(OP(=O)(O)O)C1OP(=O)(O)O (stereo not drawn) [PP35-508, 1,5-dideoxy-1,5-imino-N-(2-phenylethyl)arabinitol-2,3,4-trisphosphate] | 27 |  |
|  | O=C(O)CP(=O)(O)OC1C(O)C(O)C(O)C(OP(=O)(O)CC(=O)O)C1OP(=O)(O)CC(=O)O (stereo not drawn) [PP40-402, myo-inositol-1,2,6-tris(carboxymethyl phosphonate)] | 32 |  |
|  | CO[C@H]1O[C@H](C)[C@@H](OP(=O)(O)O)[C@H](OP(=O)(O)O)[C@@H]1OP(=O)(O)O [PP 35-406, methyl α-D-rhamnopyranoside-2,3,4-trisphosphate] |  | Percent protection (number of writhes) [4]: 19% |
|  | COC[C@H]1OC(=O)c2coc3c2[C@@]1(C)C1=C(C3=O)[C@@H]2CCC(=O)[C@@]2(C)C[C@H]1OC(C)=O [wortmannin, reference compound] |  | PIF (interstitial fluid pressure) [5]: −2.5 mm Hg |
| 5.36 | Methyl-6-O-butyl-α-D-mannopyranoside 2,3,4-trisphosphate [PP35-402] |  |  |
